# Molecular target: C-C chemokine receptor type 2 (Homo sapiens, UniProt P41597)
# Test: Inhibition of human C-C chemokine receptor type 2
# Sequence of C-C chemokine receptor type 2 (P41597 whole entry): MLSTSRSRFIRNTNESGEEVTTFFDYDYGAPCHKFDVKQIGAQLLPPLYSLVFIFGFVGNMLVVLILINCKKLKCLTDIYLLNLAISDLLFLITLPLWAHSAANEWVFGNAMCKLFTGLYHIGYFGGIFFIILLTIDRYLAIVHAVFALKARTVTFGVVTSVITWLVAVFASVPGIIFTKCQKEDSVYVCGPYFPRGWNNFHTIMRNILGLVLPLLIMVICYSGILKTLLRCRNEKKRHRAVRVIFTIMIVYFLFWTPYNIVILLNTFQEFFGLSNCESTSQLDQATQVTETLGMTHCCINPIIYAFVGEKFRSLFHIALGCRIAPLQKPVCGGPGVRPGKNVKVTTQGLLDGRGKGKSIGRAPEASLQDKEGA
row,SMILES,IC50
1,O=C(O)c1cc2cc(F)ccc2n1Cc1ccc(Cl)c(Cl)c1,56 nM
2,O=C(O)c1c(Cl)c2ccccc2n1Cc1ccc(Cl)c(Cl)c1,260 nM
3,O=C(O)c1cc2ccccc2n1S(=O)(=O)c1ccc(Cl)c(Cl)c1,1020 nM
4,Cc1ccc(Cn2c(C(=O)O)cc3cc(Cl)ccc32)cc1C,220 nM
5,O=C(O)c1cc2ccccc2n1Cc1cccc(Cl)c1,1130 nM
6,O=C(O)c1cc2ccccc2n1Cc1ccc(-c2ccccc2)cc1,> 50000 nM
7,O=C(O)c1cc2cc(C(F)(F)F)ccc2n1Cc1ccc(Cl)c(Cl)c1,170 nM
8,O=C(O)c1cc2ccc(Cl)cc2n1Cc1ccc(Cl)c(Cl)c1,340 nM
9,O=C(O)c1cc2ccccc2n1Cc1ccccc1,1700 nM
10,O=C(O)c1cc2cc(Cl)ccc2n1Cc1ccccc1Cl,1480 nM
11,CS(=O)(=O)NC(=O)c1cc2ccccc2n1Cc1ccc(Cl)c(Cl)c1,6090 nM
12,O=C(NS(=O)(=O)c1ccccc1)c1cc2ccccc2n1Cc1ccc(Cl)c(Cl)c1,4780 nM
13,O=C(O)c1cc2ccc(C(F)(F)F)cc2n1Cc1ccc(Cl)c(Cl)c1,1050 nM
14,O=C(O)c1cc2cc(-c3ccccc3)ccc2n1Cc1ccc(Cl)c(Cl)c1,8600 nM
15,O=C(O)c1cc2c(-c3ccccc3)cccc2n1Cc1ccc(Cl)c(Cl)c1,640 nM
16,COc1ccc2cc(C(=O)O)n(Cc3ccc(Cl)c(Cl)c3)c2c1,2300 nM
17,O=C(O)c1cc2cc(Cl)ccc2n1Cc1ccc(Cl)c(Cl)c1,110 nM
18,Cc1ccc(Cn2c(C(=O)O)cc3cc(Cl)ccc32)cc1Cl,120 nM
19,O=C(O)c1cc2cccc(F)c2n1Cc1ccc(Cl)c(Cl)c1,125 nM
20,Nc1cccc2c1cc(C(=O)O)n2Cc1ccc(Cl)c(Cl)c1,230 nM
21,COc1ccc2c(c1)cc(C(=O)O)n2Cc1ccc(Cl)c(Cl)c1,410 nM
22,Nc1ccc2c(c1)cc(C(=O)O)n2Cc1ccc(Cl)c(Cl)c1,500 nM
23,O=C(O)c1cc2cc(Cl)ccc2n1Cc1cccc([N+](=O)[O-])c1,650 nM
24,O=C(O)c1cc2c(F)cccc2n1Cc1ccc(Cl)c(Cl)c1,99 nM
25,COc1c(C(=O)O)n(Cc2ccc(Cl)c(Cl)c2)c2ccccc12,770 nM
26,O=C(O)c1cccc(Cn2c(C(=O)O)cc3cc(Cl)ccc32)c1,27000 nM
27,O=C(O)c1cc2ccccc2n1Cc1ccc(Cl)cc1,1360 nM

row,SMILES,IC50
1,COc1cccc2c1cc(C(=O)O)n2Cc1ccc(Cl)c(Cl)c1,280 nM
2,COc1cccc2cc(C(=O)O)n(Cc3ccc(Cl)c(Cl)c3)c12,1210 nM
3,O=C(O)c1cc2ccccc2n1C(=O)c1ccc(Cl)c(Cl)c1,> 50000 nM
4,Nc1ccc2cc(C(=O)O)n(Cc3ccc(Cl)c(Cl)c3)c2c1,12600 nM
5,O=C(O)c1cc2cc([N+](=O)[O-])ccc2n1Cc1ccc(Cl)c(Cl)c1,390 nM
6,COc1cccc(Cn2c(C(=O)O)cc3cc(Cl)ccc32)c1,3010 nM
7,O=C(O)c1cc2c([N+](=O)[O-])cccc2n1Cc1ccc(Cl)c(Cl)c1,1310 nM
8,O=C(O)c1c(C(=O)O)n(Cc2ccc(Cl)c(Cl)c2)c2ccccc12,96 nM
9,CS(=O)(=O)c1cccc2c1cc(C(=O)O)n2Cc1ccc(Cl)c(Cl)c1,3880 nM
10,O=C(O)c1cc2c(C(F)(F)F)cccc2n1Cc1ccc(Cl)c(Cl)c1,1190 nM
11,COc1ccc(Cn2c(C(=O)O)cc3cc(Cl)ccc32)cc1,5770 nM
12,O=C(O)c1cc2ccccc2n1Cc1ccc(Cl)c(Cl)c1,230 nM
13,Clc1ccc(Cn2c(-c3nn[nH]n3)cc3ccccc32)cc1Cl,1030 nM
14,N#Cc1c(C(=O)O)n(Cc2ccc(Cl)c(Cl)c2)c2ccccc12,300 nM
15,O=C(O)c1cc2ccc(-c3ccccc3)cc2n1Cc1ccc(Cl)c(Cl)c1,12300 nM
16,O=C(O)c1cc2c(Cl)cccc2n1Cc1ccc(Cl)c(Cl)c1,150 nM
17,CS(=O)(=O)c1ccc2c(c1)cc(C(=O)O)n2Cc1ccc(Cl)c(Cl)c1,2200 nM
18,O=C(NS(=O)(=O)C(F)(F)F)c1cc2cc(F)ccc2n1Cc1ccc(Cl)c(Cl)c1,370 nM
19,O=C(O)c1cc2ccc(F)cc2n1Cc1ccc(Cl)c(Cl)c1,90 nM
20,O=C(O)c1cc2cc(Cl)ccc2n1Cc1ccc(OCc2ccccc2)cc1,> 50000 nM
21,O=C(O)c1cc2cccc([N+](=O)[O-])c2n1Cc1ccc(Cl)c(Cl)c1,10800 nM
22,N#Cc1cccc(Cn2c(C(=O)O)cc3cc(Cl)ccc32)c1,2000 nM
23,NC(=O)c1cc2ccccc2n1Cc1ccc(Cl)c(Cl)c1,12700 nM
24,O=C(O)c1cc2cccc(Cl)c2n1Cc1ccc(Cl)c(Cl)c1,340 nM
25,O=C(O)c1cc2cccc(C(F)(F)F)c2n1Cc1ccc(Cl)c(Cl)c1,1270 nM
26,O=C(O)c1cc2ccc([N+](=O)[O-])cc2n1Cc1ccc(Cl)c(Cl)c1,1640 nM

# — ChEMBL document CHEMBL1146832, “N-Benzylindole-2-carboxylic acids: potent functional antagonists of the CCR2b chemokine receptor” (Bioorg Med Chem Lett, 2004)
